# Read-outs that look alike come from different tables or passages of the source. Numbered stars: 1 amine (or outer) side, 2 acyl side, 3 side chain; on linkers, the order of the positions; unused ones are H or OH. Square brackets hold non-standard residues; d marks the D form. Side chains are listed from the residue outwards. Peptide text beside a SMILES is read from it. * marks the point of attachment. C20 diacid = O=C(O)CCCCCCCCCCCCCCCCCCC(=O)*; γGlu = O=C(O)[C@H](CCC(=O)[*:2])N[*:1]; AEEA = NCCOCCOCC(=O)O; Aib = CC(C)(N)C(=O)O
# Key:
# [1] = Fibril formation of crude library peptides (Thioflavin T); assay type: physicochemical; parameters: key: average ThT fluorescence emission at 480 nm (ex 450 nm), raw units; details: Physical stability of peptides
# Summary of the method: (§1)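 Fibril formation is scored as average ThT fluorescence from duplicate samples monitored for 72 h at 40° C with shaking stress. Turbidity is the absorbance at 600 nm taken before heating. Peptide concentration was 267 μM at pH 4.0 or pH 7.0.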
# SCTR = SCTR (Homo sapiens, UniProt P47872); test: hSCTR potency, cAMP accumulation in CHO-K1 cells stably overexpressing hSCTR; assay type: cell-based; parameters: alternatively Euroscreen ES-712-AF; FAST-0161L; host or cells: CHO-K1; details: cAMP accumulation, CHO-K1 cells overexpressing hSCTR
# Sequence of SCTR (P47872 23-440): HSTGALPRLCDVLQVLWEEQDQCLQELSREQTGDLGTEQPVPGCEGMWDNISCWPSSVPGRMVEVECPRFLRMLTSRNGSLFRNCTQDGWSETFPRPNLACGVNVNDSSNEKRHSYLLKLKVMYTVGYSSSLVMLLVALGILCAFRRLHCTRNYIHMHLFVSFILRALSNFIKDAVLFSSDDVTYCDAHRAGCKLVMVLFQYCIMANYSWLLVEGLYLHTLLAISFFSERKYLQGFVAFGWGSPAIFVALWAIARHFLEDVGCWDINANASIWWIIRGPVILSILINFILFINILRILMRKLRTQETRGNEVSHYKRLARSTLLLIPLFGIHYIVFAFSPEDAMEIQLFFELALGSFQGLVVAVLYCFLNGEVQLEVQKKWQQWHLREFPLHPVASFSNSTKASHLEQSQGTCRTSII
# Summary of the method: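 In this Gs cAMP assay, stably transfected CHO-K1 hSCTR cells were stimulated at room temperature for 30 min in IBMX-containing buffer. Time-resolved FRET gave the signal. Replicates were increased when the top concentration changed or EC50 values differed 5-fold.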
# GLP1R = GLP1R (Homo sapiens, UniProt P43220); test: hGLP1R potency, cAMP accumulation in CHO-K1 cells stably overexpressing hGLP1R; assay type: cell-based; parameters: host or cells: CHO-K1; details: for Selectivity: SCTR EC50/GLP1R EC50 ratio; for EC50: cAMP accumulation, CHO-K1 cells overexpressing hGLP1R; for SCTR EC50/GLP1R EC50 ratio: selectivity for hGLP1R over hSCTR, cAMP accumulation in CHO-K1 cells
# Sequence of GLP1R (P43220 24-463): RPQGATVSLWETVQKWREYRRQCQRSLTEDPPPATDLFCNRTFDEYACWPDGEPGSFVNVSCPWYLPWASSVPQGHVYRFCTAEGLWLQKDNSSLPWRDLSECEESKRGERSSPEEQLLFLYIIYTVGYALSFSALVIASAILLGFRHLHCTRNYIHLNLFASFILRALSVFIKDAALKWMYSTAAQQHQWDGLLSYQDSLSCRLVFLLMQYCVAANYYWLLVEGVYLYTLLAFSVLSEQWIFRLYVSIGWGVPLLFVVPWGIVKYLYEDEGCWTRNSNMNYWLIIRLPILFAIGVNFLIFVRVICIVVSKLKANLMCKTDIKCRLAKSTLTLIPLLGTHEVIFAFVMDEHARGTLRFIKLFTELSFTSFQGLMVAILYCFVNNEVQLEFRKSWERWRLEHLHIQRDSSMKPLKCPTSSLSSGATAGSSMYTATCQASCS
# Summary of the method: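 In the presence of 0.5 mM IBMX, compounds stimulated the cells for 30 minutes at room temperature. Accumulated cAMP was then detected by TR-FRET, with EC50 values fitted by variable-slope nonlinear regression.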
# [2] = Turbidity of crude library peptides (absorbance at 600 nm); assay type: physicochemical; details: Physical stability of peptides
# Summary of the method: as §1
# [3] = read-out: pEC50 hSCTR (converted)
# [4] = read-out: pEC50 hGLPR1 (converted)
# [5] = read-out: hSCTR pEC50 (converted)
# [6] = read-out: hGLP1R pEC50 (converted)
Fibril formation [1],EC50 (SCTR; [3]) [nM],Selectivity (GLP1R),EC50 (GLP1R; [4]) [nM],Turbidity (pH 7) [2],EC50 (SCTR; [5]) [nM],EC50 (GLP1R; [6]) [nM],SCTR EC50/GLP1R EC50 ratio (GLP1R),Compound
10247,200,9917,0.02,0.08,,,,CC(C)C[C@H](NC(=O)[C@H](Cc1ccccc1)NC(=O)[C@H](CCCNC(=N)N)NC(=O)[C@H](CCC(N)=O)NC(=O)[C@H](CCC(N)=O)NC(=O)[C@H](C)NC(=O)[C@H](C)NC(=O)[C@H](CCC(=O)O)NC(=O)[C@H](CCC(=O)O)NC(=O)[C@H](CCCCNC(=O)COCCOCCNC(=O)COCCOCCNC(=O)CC[C@H](NC(=O)CCCCCCCCCCCCCCCCCCC(=O)O)C(=O)O)NC(=O)[C@H](CC(C)C)NC(=O)[C@H](CCC(=O)O)NC(=O)[C@H](CO)NC(=O)[C@@H](NC(=O)[C@H](CC(=O)O)NC(=O)[C@H](CO)NC(=O)[C@@H](NC(=O)[C@H](Cc1ccccc1)NC(=O)[C@@H](NC(=O)CNC(=O)[C@H](CCC(=O)O)NC(=O)C(C)(C)NC(=O)[C@@H](N)Cc1c[nH]cn1)[C@@H](C)O)[C@@H](C)O)C(C)C)C(=O)N[C@@H](CCC(=O)O)C(=O)N[C@@H](Cc1c[nH]cn1)C(=O)N[C@@H](CC(C)C)C(=O)N[C@H](C(N)=O)C(C)C [compound 14] (H-H[Aib]EGTFTSDVSELK([AEEA-AEEA-γGlu-C20 diacid])EEAAQQRFLEHLV-NH2)
2766,,,,0.08,3160,0.00501,693266,CC(C)C[C@H](NC(=O)[C@H](Cc1ccccc1)NC(=O)[C@H](CCCNC(=N)N)NC(=O)[C@H](CCC(N)=O)NC(=O)[C@H](CCC(=O)O)NC(=O)C(C)(C)NC(=O)[C@H](C)NC(=O)[C@H](CCC(=O)O)NC(=O)[C@H](CCC(=O)O)NC(=O)[C@H](CCCCNC(=O)COCCOCCNC(=O)COCCOCCNC(=O)CC[C@H](NC(=O)CCCCCCCCCCCCCCCCCCC(=O)O)C(=O)O)NC(=O)[C@H](CC(C)C)NC(=O)[C@H](Cc1ccc(O)cc1)NC(=O)[C@H](CO)NC(=O)[C@@H](NC(=O)[C@H](CC(=O)O)NC(=O)[C@H](CO)NC(=O)[C@@H](NC(=O)[C@H](Cc1ccccc1)NC(=O)[C@@H](NC(=O)CNC(=O)[C@H](CCC(=O)O)NC(=O)C(C)(C)NC(=O)[C@@H](N)Cc1c[nH]cn1)[C@@H](C)O)[C@@H](C)O)C(C)C)C(=O)N[C@@H](CCC(=O)O)C(=O)N[C@@H](Cc1c[nH]cn1)C(=O)N[C@@H](CC(C)C)C(=O)N[C@H](C(N)=O)C(C)C [compound 150] (H-H[Aib]EGTFTSDVSYLK([AEEA-AEEA-γGlu-C20 diacid])EEA[Aib]EQRFLEHLV-NH2)
13897,,,,0.12,50.1,0.0251,2127,CC[C@H](C)[C@H](NC(=O)[C@H](Cc1ccccc1)NC(=O)[C@H](CCCNC(=N)N)NC(=O)[C@H](CCC(N)=O)NC(=O)[C@H](CC(C)C)NC(=O)[C@H](C)NC(=O)[C@H](C)NC(=O)CNC(=O)[C@H](CCC(=O)O)NC(=O)[C@H](CC(C)C)NC(=O)[C@H](CC(C)C)NC(=O)[C@H](CCC(=O)O)NC(=O)[C@H](CO)NC(=O)[C@@H](NC(=O)[C@H](CC(=O)O)NC(=O)[C@H](CO)NC(=O)[C@@H](NC(=O)[C@H](Cc1ccccc1)NC(=O)[C@@H](NC(=O)CNC(=O)[C@H](CCC(=O)O)NC(=O)C(C)(C)NC(=O)[C@@H](N)Cc1c[nH]cn1)[C@@H](C)O)[C@@H](C)O)[C@@H](C)CC)C(=O)N[C@@H](CCC(N)=O)C(=O)N[C@@H](Cc1c[nH]c2ccccc12)C(=O)N[C@@H](CC(C)C)C(=O)N[C@H](C(N)=O)C(C)C [compound 119] (H-H[Aib]EGTFTSDISELLEGAALQRFIQWLV-NH2)
3284,,,,0.15,1000,0.158,6863,CC[C@H](C)[C@H](NC(=O)[C@H](Cc1ccccc1)NC(=O)[C@H](CCCNC(=N)N)NC(=O)[C@H](CCC(N)=O)NC(=O)[C@H](CC(C)C)NC(=O)[C@H](C)NC(=O)[C@H](C)NC(=O)CNC(=O)[C@H](CCC(=O)O)NC(=O)[C@H](CC(C)C)NC(=O)[C@H](CC(C)C)NC(=O)C(C)(C)NC(=O)[C@H](CO)NC(=O)C(C)(C)NC(=O)[C@H](CC(=O)O)NC(=O)[C@H](CO)NC(=O)[C@@H](NC(=O)[C@H](Cc1ccccc1)NC(=O)[C@@H](NC(=O)CNC(=O)[C@H](CCC(=O)O)NC(=O)C(C)(C)NC(=O)[C@@H](N)Cc1c[nH]cn1)[C@@H](C)O)[C@@H](C)O)C(=O)N[C@@H](CCC(N)=O)C(=O)N[C@@H](Cc1c[nH]c2ccccc12)C(=O)N[C@@H](CC(C)C)C(=O)N[C@H](C(N)=O)C(C)C [compound 107] (H-H[Aib]EGTFTSD[Aib]S[Aib]LLEGAALQRFIQWLV-NH2)
16290,126,5236,0.0251,0.08,,,,CC(C)C[C@H](NC(=O)[C@H](Cc1ccccc1)NC(=O)[C@H](CCCNC(=N)N)NC(=O)[C@H](CCC(N)=O)NC(=O)[C@@H](NC(=O)[C@H](C)NC(=O)[C@H](C)NC(=O)C(C)(C)NC(=O)[C@H](CCC(=O)O)NC(=O)[C@H](CCCCNC(=O)COCCOCCNC(=O)COCCOCCNC(=O)CC[C@H](NC(=O)CCCCCCCCCCCCCCCCCCC(=O)O)C(=O)O)NC(=O)[C@H](CC(C)C)NC(=O)[C@H](Cc1ccc(O)cc1)NC(=O)[C@H](CO)NC(=O)[C@@H](NC(=O)[C@H](CC(=O)O)NC(=O)[C@H](CO)NC(=O)[C@@H](NC(=O)[C@H](Cc1ccccc1)NC(=O)[C@@H](NC(=O)CNC(=O)[C@H](CCC(=O)O)NC(=O)C(C)(C)NC(=O)[C@@H](N)Cc1c[nH]cn1)[C@@H](C)O)[C@@H](C)O)C(C)C)[C@@H](C)O)C(=O)N[C@@H](CCC(=O)O)C(=O)N[C@@H](Cc1c[nH]cn1)C(=O)N[C@@H](CC(C)C)C(=O)N[C@H](C(N)=O)C(C)C [compound 48] (H-H[Aib]EGTFTSDVSYLK([AEEA-AEEA-γGlu-C20 diacid])E[Aib]AATQRFLEHLV-NH2)
9344,,,,0.08,3980,0.2,19815,CC(C)C[C@H](NC(=O)[C@H](CCC(=O)O)NC(=O)[C@H](CCCCNC(=O)COCCOCCNC(=O)COCCOCCNC(=O)CC[C@H](NC(=O)CCCCCCCCCCCCCCCCCCC(=O)O)C(=O)O)NC(=O)[C@H](CC(C)C)NC(=O)[C@H](Cc1ccc(O)cc1)NC(=O)[C@H](CO)NC(=O)[C@@H](NC(=O)[C@H](CC(=O)O)NC(=O)[C@H](CO)NC(=O)[C@@H](NC(=O)[C@H](Cc1ccccc1)NC(=O)[C@@H](NC(=O)CNC(=O)[C@H](CCC(=O)O)NC(=O)C(C)(C)NC(=O)[C@@H](N)Cc1c[nH]cn1)[C@@H](C)O)[C@@H](C)O)C(C)C)C(=O)N[C@@H](C)C(=O)N[C@@H](C)C(=O)N[C@@H](C)C(=O)N[C@@H](CCC(N)=O)C(=O)N[C@@H](CCCNC(=N)N)C(=O)N[C@@H](Cc1ccccc1)C(=O)N[C@@H](CC(C)C)C(=O)N[C@@H](CCC(=O)O)C(=O)N[C@@H](Cc1c[nH]cn1)C(=O)N[C@@H](CC(C)C)C(=O)N[C@H](C(N)=O)C(C)C [compound 86] (H-H[Aib]EGTFTSDVSYLK([AEEA-AEEA-γGlu-C20 diacid])ELAAAQRFLEHLV-NH2)
5668,,,,0.09,1580,0.0316,51322,CC(C)C[C@H](NC(=O)[C@H](Cc1ccccc1)NC(=O)[C@H](CCCNC(=N)N)NC(=O)[C@H](CCC(N)=O)NC(=O)[C@H](CCC(N)=O)NC(=O)[C@H](C)NC(=O)[C@H](C)NC(=O)[C@H](CCC(=O)O)NC(=O)[C@H](CCC(=O)O)NC(=O)[C@H](CCCCNC(=O)COCCOCCNC(=O)COCCOCCNC(=O)CC[C@H](NC(=O)CCCCCCCCCCCCCCCCCCC(=O)O)C(=O)O)NC(=O)[C@H](CC(C)C)NC(=O)[C@@H](NC(=O)[C@H](CO)NC(=O)[C@@H](NC(=O)[C@H](CC(=O)O)NC(=O)[C@H](CO)NC(=O)[C@@H](NC(=O)[C@H](Cc1ccccc1)NC(=O)[C@@H](NC(=O)CNC(=O)[C@H](CCC(=O)O)NC(=O)C(C)(C)NC(=O)[C@@H](N)Cc1c[nH]cn1)[C@@H](C)O)[C@@H](C)O)C(C)C)C(C)C)C(=O)N[C@@H](CCC(=O)O)C(=O)N[C@@H](Cc1c[nH]cn1)C(=O)N[C@@H](CC(C)C)C(=O)N[C@H](C(N)=O)C(C)C [compound 90] (H-H[Aib]EGTFTSDVSVLK([AEEA-AEEA-γGlu-C20 diacid])EEAAQQRFLEHLV-NH2)

# Reference: patent publication US20260201008A1, “SECRETIN-DERIVED GLP1R SELECTIVE AGONISTS” (GUBRA A/S, priority 2023, published 2026)
